From patent publication US7674486B2, “Synergistic composition for the treatment of diabetes mellitus” (Indus Biotech Pvt. Ltd., priority 2003, dated 2010)

Experiments:
[1] = tested on: pancreas (potassium channel mediated insulin secretion); assay: K+ ions in pancreas homogenate by Biolyte analyser; assay type: in vivo, mouse; settings: pancreas homogenate at 1 hour; oral: Total amino acids 10 mg/kg, Trigonelline 75 mg/kg, Glyburide 10 mg/kg, Composition 30 mg/kg
Procedure: EXPERIMENT 6:—The effect of the composition prepared as per Experiment 1 & 2 as well as their individual components separated on column chromatography were studied on normal Swiss Albino mice (male) in the weight range of 25-30 gms for GTT. The animals were fed in the following manner. • 1) Administration of 2 gm/kg of glucose by Inter Peritonially. • 2) Administration of the drug (Orally):
• 3) Measurement of BSL at 0 minutes & 1 hour. • 4) Immediately after blood removal at 1 hour, the animals were sacrificed by tail flicking and the pancreas was removed and homogenized using tris buffer. After centrifugation, the homogenate was characterized by thin layer chromatography and K^+ Ions by Biolyte analyser. Following are the observations:
Decreased K+ ion concentration indicates the repolarisation effect as the ATP dependant IK-ATP

normal Swiss Albino mice = assay: GTT in normal Swiss Albino mice (BSL); assay type: in vivo, mouse; settings: glucose 2 gm/kg i.p.; oral: Total amino acids 10 mg/kg, Trigonelline 75 mg/kg, Glyburide 10 mg/kg, Composition 30 mg/kg
Text: The animals were fed in the following manner. • 1) Administration of 2 gm/kg of glucose by Inter Peritonially. • 2) Administration of the drug (Orally): [table] […] After centrifugation, the homogenate was characterized by thin layer chromatography and K^+ Ions by Biolyte analyser.

[2] = Comparative hypoglycemic activity of fenugreek seed powder, fenugreek components and the composition; settings: in vivo
Text: The comparative results of fenugreek seed powder (whole), and the composition of the instant application are shown below to establish inventiveness of the application.
The activity was restricted to only a couple of components. Also, synergy was observed by a selective combination of three components of the composition. The same is elaborated with the help of experimental data as given below.

[3] = tested on: Female wistar rats, sciatic nerve; assay: Partial sciatic nerve ligation: motor function test, pain scale; assay type: in vivo, rat; settings: 50 mg/kg, scale 0 nil to 5 highly severe
Procedure: This experiment is conducted to evaluate the neuropathy effects. • 1. Partial Sciatic Nerve Ligation • 2. Formalin Induced Behavioral And Thermal Hyperalgesia Experiment 1: Partial Sciatic Nerve Ligation Material and Method:— Preparation of Animals:— Animals:—Female wistar rats 175-250 gram (n=6)
(§1) Surgery:—Under ether anesthesia and aseptic conditions the right sciatic nerve was exposed at high thigh level. In sham operated animals the nerve was left intact and the wound was closed with 2 muscle suture and 3-4 skin sutures.
(§2) In experimental animals the sciatic nerve underwent partial injury. The dorsum of the nerve was carefully freed from surrounding connective tissues at a site near the trochanter just distil to the point at which the posterior biceps semitendinosus nerve branches off the common sciatic nerve. Using an irish forceps the nerve was fixed in its place by pinching the epineurium on its dorsal aspect, taking care not to press the nerve against underlying structures. An 4-0 silk suture was inserted into the nerve with ⅜ curved, reverse-cutting mini needle, and tightly ligated so that the dorsal ⅓−½ of the nerve thickness was trapped in the ligature. The wound was then closed as in sham operated rats. In all rats the left leg and sciatic nerve were untouched.
(§3) The animals were divided into following groups:—
(§4) Group 1 Control (vehicle treated) (but nerve not ligated)
(§5) Group 2 Sham treated (vehicle treated)(Surgery done but no ligation of nerve)
(§6) Group 3 Vitamin E acetate (50 mg/kg) (nerve ligated)
(§7) Group 4 Indus test drug (100 mg/kg) (nerve ligated)
(§8) Group 5 Indus test drug (200 mg/kg) (nerve ligated)
• a. Thermal hyperalgesia (TH):—This was assessed using Ugo Basile Hot Plate instrument (at 55±1° C.). Antinociceptive effects were determined according to the latency (in seconds) of limb withdrawal to the noxious thermal simulation (Ugo Basile hot plate, Versace, Italy). […] Motor function test (MFT):—Motor function was monitored by observation of spontaneous gait and hind paw posture. […] The readings were observed on day 0, 2, 15 and 30.

[4] = tested on: Female wistar rats, sciatic nerve; assay: Partial sciatic nerve ligation: thermal hyperalgesia (hot plate); assay type: in vivo, rat; settings: 50 mg/kg, nerve ligated
Procedure: This experiment is conducted to evaluate the neuropathy effects. • 1. Partial Sciatic Nerve Ligation • 2.
as §1, §2, §3, §4, §5, §6, §7, §8
• a. Thermal hyperalgesia (TH):—This was assessed using Ugo Basile Hot Plate instrument (at 55±1° C.). Antinociceptive effects were determined according to the latency (in seconds) of limb withdrawal to the noxious thermal simulation (Ugo Basile hot plate, Versace, Italy). Cut off value of planter test was set to 22 s to prevent limb injury. The pain threshold were tested on day 0, 2, 4, 6, 8, 10, 12, 14, 21 and 28. • b. Motor function test (MFT):—Motor function was monitored by observation of spontaneous gait and hind paw posture. Each animal was placed in a plastic box with plexiglass walls and allowed to habituate for at least 5 minutes before the observation period. […] The readings were observed on day 0, 2, 15 and 30.

Male wistar rats, kidney = assay: Diabetic nephropathy model (Alloxan plus left renal artery clamping); assay type: in vivo, rat
Procedure: Male wistar rats of 150-200 gram were injected Alloxan (150 mg/kg i.p.) to induce diabetes. Once the animals show blood sugar above 250 mg/dl, animals are divided in groups as mentioned below and dosing of same is started as per groups. After 7 days of dosing in test drug groups and 3 days dosing in insulin group surgery is performed. In all groups animals were anesthetized and a small midline incision was made to isolate left renal artery and clamped for 30 minutes after which animals were stitched back. This is a kidney ligation technique to induce diabetic nephropathy in experimental animals. In Group 1, complete procedure was same but no treatment is given. The animals were then allowed to recover and dosing was continued as per given in various groups till day 30th after surgery. Creatinine clearance was noted on 0th, 10th, 20th and 30th day. After 30 days animals were sacrificed and kidney was sent for histopathological evaluation. Group 1 Saline (untreated) Group 2 Test drug (low dose) Group 3 Test drug (medium dose) Group 4 Test drug (high dose) Group 5 Standard (insulin)

COc1ccc(Cl)cc1C(=O)NCCc1ccc(S(=O)(=O)NC(=O)NC2CCCCC2)cc1 [Glyburide]
K+ Ions (μ Mol) [1]: 22.5 μ Mol | BSL after 1 hour (normal Swiss Albino mice): 251 mg/dL | BSL at 0 hrs (normal Swiss Albino mice): 365 mg/dL

C[n+]1cccc(C(=O)[O-])c1 [Trigonelline]
K+ Ions (μ Mol) [1]: 21.8 μ Mol | Hypoglycemic activity (%) [2]: 31% | BSL after 1 hour (normal Swiss Albino mice): 233 mg/dL | BSL at 0 hrs (normal Swiss Albino mice): 341 mg/dL

CC(=O)Oc1c(C)c(C)c2c(c1C)CCC(C)(CCC[C@H](C)CCC[C@H](C)CCCC(C)C)O2 (some centres unmarked) [Vitamin E, Vitamin E acetate]
Motor function test, Pain scale ([3]; 0th day): 0 | Motor function test, Pain scale ([3]; 2nd day): 2.77 | Motor function test, Pain scale ([3]; 15th day): 1.25 | Thermal hyperalgesia, latency of limb withdrawal ([4]; 0th day (before ligation)): 9.51 s | Thermal hyperalgesia, latency of limb withdrawal ([4]; 2nd day): 3.24 s | Thermal hyperalgesia, latency of limb withdrawal ([4]; 4th day): 5.9 s | Thermal hyperalgesia, latency of limb withdrawal ([4]; 6th day): 7.12 s | Thermal hyperalgesia, latency of limb withdrawal ([4]; 8th day): 7.95 s | Thermal hyperalgesia, latency of limb withdrawal ([4]; 10th day): 9.81 s | Thermal hyperalgesia, latency of limb withdrawal ([4]; 12th day): 9.88 s | Thermal hyperalgesia, latency of limb withdrawal ([4]; 14th day): 10.04 s

insulin: Standard in nephropathy model
Histopathology of the kidney: cellularity and matrix (Male wistar rats, kidney; insulin group): did not show any increase in cellularity and matrix | Histopathology of the kidney: tubular necrosis, interstitial fibrosis (Male wistar rats, kidney; insulin treated group): very mild
